Results reported in ChEMBL document CHEMBL5053554, “Identification of novel influenza polymerase PB2 inhibitors using virtual screening approach and molecular dynamics simulation analysis of active compounds” (Bioorg Med Chem, 2021).

Columns and labels:
[1] = test system: Influenza A virus (A/Puerto Rico/8/1934(H1N1)); experiment: Antiviral activity against Influenza A virus (A/Puerto Rico 8/1934 (H1N1)) infected in MDCK cells assessed as inhibition of virus-induced cytopathic effect measured after 72 hrs by CellTiter-Glo viability assay; format: functional, organism-based
[2] = Antiviral activity against Influenza A virus (A/Hong Kong/1-8/1968(H3N2)) infected in MDCK cells assessed as inhibition of virus-induced cytopathic effect measured after 72 hrs by CellTiter-Glo viability assay; format: functional, cell-based
[3] = molecular target: Polymerase basic protein 2 (Influenza A virus (strain A/Puerto Rico/8/1934 H1N1), UniProt P03428); experiment: Binding affinity to CM5 immobilized N-terminal His/Sumo tagged Influenza A virus (A/WSN/1933(H1N1)) PB2 CBD (318 to 486 residues) expressed in Escherichia coli by surface plasmon resonance assay
[4] = Cytotoxicity against MDCK cells assessed as reduction in cell viability measured after 72 hrs by CCK8 analysis; format: cell-based, Canis lupus familiaris; details: dog

Sequence of Polymerase basic protein 2 (P03428 whole entry, the tested form may be a part): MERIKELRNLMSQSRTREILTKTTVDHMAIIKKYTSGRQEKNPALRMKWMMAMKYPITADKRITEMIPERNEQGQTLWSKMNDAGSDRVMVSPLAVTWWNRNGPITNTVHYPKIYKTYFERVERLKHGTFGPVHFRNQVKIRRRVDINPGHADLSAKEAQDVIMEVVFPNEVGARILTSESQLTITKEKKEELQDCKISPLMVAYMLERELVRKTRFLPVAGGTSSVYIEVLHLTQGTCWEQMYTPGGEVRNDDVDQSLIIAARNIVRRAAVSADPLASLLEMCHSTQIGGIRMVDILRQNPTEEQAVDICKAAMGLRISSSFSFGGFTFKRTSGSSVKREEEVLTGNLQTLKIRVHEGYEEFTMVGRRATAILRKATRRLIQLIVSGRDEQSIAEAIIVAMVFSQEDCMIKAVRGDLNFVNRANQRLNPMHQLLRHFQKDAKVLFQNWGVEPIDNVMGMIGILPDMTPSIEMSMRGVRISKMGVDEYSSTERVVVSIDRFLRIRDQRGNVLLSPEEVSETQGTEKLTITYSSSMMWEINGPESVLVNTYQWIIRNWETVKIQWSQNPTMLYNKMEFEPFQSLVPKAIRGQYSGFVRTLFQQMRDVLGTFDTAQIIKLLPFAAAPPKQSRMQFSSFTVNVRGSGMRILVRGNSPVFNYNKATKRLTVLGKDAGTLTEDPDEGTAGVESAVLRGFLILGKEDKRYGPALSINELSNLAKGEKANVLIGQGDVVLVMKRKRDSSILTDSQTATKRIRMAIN

Compound	EC50 [1]	EC50 [2]	Kd [3]	CC50 at 72 h [4]
O=C(O)CSc1nc(-c2ccccc2)nc2c1oc1ccccc12	22.4 µM	27 µM	0.25 µM	> 100 µM
O=c1[nH]c2ccc(NCc3ccc(Cl)c(Cl)c3)cc2[nH]1	21.7 µM	7.44 µM	6.4 µM	> 100 µM
O=C1c2ccccc2C(=O)c2cc(OC[C@H](O)Cn3cnc4ccccc43)ccc21	33.2 µM	25.2 µM	2.2 µM	> 100 µM
O=C(O)CSc1cc(O)c2c(c1O)C(=O)c1ccccc1C2=O	5.81 µM	7.55 µM	0.58 µM	49.7 µM
Cc1c(O[C@H](C(=O)O)c2ccccc2)ccc2c1oc(=O)c1ccccc12	26.5 µM	15.1 µM	0.11 µM	> 100 µM
O=C(c1cc(=O)[nH]c2ccccc12)N1CCc2[nH]c3ccccc3c2C1	42.8 µM	41.5 µM	1.6 µM	> 100 µM
CCC(CC)O[C@@H]1C=C(C(=O)O)C[C@H](N)[C@H]1NC(C)=O [OSELTAMIVIR CARBOXYLATE]	3.07 µM	0.03 µM		> 100 µM
O=C(O)[C@H]1C2CCC(CC2)[C@@H]1Nc1nc(-c2c[nH]c3ncc(F)cc23)ncc1F [PIMODIVIR]	< 0.005 µM	1.84 µM	0.054 µM	> 100 µM
